{"source": "patent US20160281125A1", "about": "“ANTIMICROBIAL COMPOUND SUSCEPTIBILITY TEST” (priority 2013, published 2016)", "key": {"E. coli 23848": {"system": "E. coli 23848", "test": "Selective lysis test, OD600 turbidity (Example 1)", "format": "cell-based, Escherichia coli", "procedure": "(§1) An isolated colony from an overnight Tryptocase Soy Agar (TSA) plate of each bacterial strain was suspended in 1 ml Tryptocasc Soy Broth (TSB) in a 5 ml BD polystyrene round bottom tube. TSB cultures were incubated shaking at 37° C. overnight. Ten of the overnight culture was inoculated into lml TSB and incubated shaking at 37° C. for three hours. Two […] aliquots of each log-phase culture were then transferred to two 2 ml Eppendorf microcentrifuge tubes. One tube contained 5000 of Normal Saline (BD); the second tube contained 5000 Normal Saline with meropenem at 10 μg/ml (final concentration of meropenem of 6.67 10 μg/ml). Tubes were inverted and then incubated at 37° C. stagnant for thirty minutes. Then […] of lysis buffer (0.5% SDS in PSB) (final concentration of SDS of 0.125%) was added to each tube and the tubes were vortexed for 5 seconds. Post incubation, all tubes were spun at 10000 G for 5 minutes. Supernatant was decanted and the pellet resuspended in Normal Saline. Tubes were vortexed again. OD600 was measured using Eppendorf uvettes in a spectrophotometer. The delta between the OD600 of the normal saline control and the OD600 for the test sample exposed to meropenem in normal saline was used to determine susceptibility of the bacterial strain to meropenem."}, "E. coli 25922": {"system": "E. coli 25922", "test": "Selective lysis test, OD600 turbidity (Example 1)", "format": "cell-based, Escherichia coli", "procedure": "as §1"}, "E. coli 35218": {"system": "E. coli 35218", "test": "Selective lysis test, OD600 turbidity (Example 1)", "format": "cell-based, Escherichia coli", "procedure": "as §1"}, "E. coli 51422": {"system": "E. coli 51422", "test": "Selective lysis test, OD600 turbidity (Example 1)", "format": "cell-based, Escherichia coli", "procedure": "as §1"}, "K. oxy KPC 46532": {"system": "K. oxy KPC 46532", "test": "Selective lysis test, OD600 turbidity (Example 1)", "format": "cell-based, Klebsiella oxytoca", "procedure": "as §1\n(§2) The tested resistant strains were Klebsiella pneumoniae carbapenemase (KPC)-producing bacteria (abbreviated “KPC”), KPC-producing Klebsiella oxytoca (abbreviated “KPC K. oxy), and Klebsiella pneumoniae producing Metallo-beta-lactamase-1 (NDM-1) (abbreviated “NDM”)."}, "K. pneumo KPC 12213": {"system": "K. pneumo KPC 12213", "test": "Selective lysis test, OD600 turbidity (Example 1)", "format": "cell-based, Klebsiella pneumoniae", "procedure": "as §1, §2"}, "K. pneumo KPC 1705": {"system": "K. pneumo KPC 1705", "test": "Selective lysis test, OD600 turbidity (Example 1)", "format": "cell-based, Klebsiella pneumoniae", "procedure": "as §1, §2"}, "K. pneumo KPC 24605": {"system": "K. pneumo KPC 24605", "test": "Selective lysis test, OD600 turbidity (Example 1)", "format": "cell-based, Klebsiella pneumoniae", "procedure": "as §1, §2"}, "K. pneumo KPC 41217": {"system": "K. pneumo KPC 41217", "test": "Selective lysis test, OD600 turbidity (Example 1)", "format": "cell-based, Klebsiella pneumoniae", "procedure": "as §1, §2"}, "K. pneumo KPC 4121": {"system": "K. pneumo KPC 4121", "test": "Selective lysis test, OD600 turbidity (Example 1)", "format": "cell-based, Klebsiella pneumoniae", "procedure": "as §1, §2"}, "K. pneumo KPC 65707": {"system": "K. pneumo KPC 65707", "test": "Selective lysis test, OD600 turbidity (Example 1)", "format": "cell-based, Klebsiella pneumoniae", "procedure": "as §1, §2"}, "K. pneumo KPC KPC12": {"system": "K. pneumo KPC KPC12", "test": "Selective lysis test, OD600 turbidity (Example 1)", "format": "cell-based, Klebsiella pneumoniae", "procedure": "as §1, §2"}, "K. pneumo NDM 2146": {"system": "K. pneumo NDM 2146", "test": "Selective lysis test, OD600 turbidity (Example 1)", "format": "cell-based, Klebsiella pneumoniae", "procedure": "as §1, §2"}, "K. pneumo 13882": {"system": "K. pneumo 13882", "test": "Selective lysis test, OD600, meropenem and cefotaxime (Example 2)", "format": "cell-based, K. pneumoniae", "procedure": "(§3) In this experiment the following strains were tested: strain K. pneumoniae 13882 (previously considered meropenem sensitive and cefotaxime sensitive); E. coli BAA-197 (ESBL) (which expresses an extended-spectrum (beta)-lactamase enzyme and was previously considered meropenem sensitive and cefotaxime resistant); K. pneumoniae BAA-1705 (KPC) (which expresses a carbapenemase enzyme and was previously considered meropenem resistant and cefotaxime resistant); and K. pneumoniae BAA-2146 (NDM1) (which expresses the metallo-beta-lactamase-1 enzyme and was previously considered meropenem resistant and cefotaxime resistant).\n(§4) An isolated colony from an overnight Tryptocase Soy Agar (TSA) plate of each bacteria was suspended in 1 ml Tryptocase Soy Broth (TSB) in a 5 ml BD polystyrene round bottom tube. TSB cultures were incubated at 37° C. for 1.5 hours shaking. Three 250 μl aliquots of each stationary-phase culture were then transferred to three 2 ml Eppendorf microcentrifuge tubes. One tube contained 500 μl of Normal Saline (BD); the second tube contained 500 μl Normal Saline with meropenem at 10 μg/ml; and the third tube contained 500 μl Normal Saline with cefotaxime (abbreviated […]) at 10 μg/ml. Tubes were inverted then incubated at 37° C. stagnant for thirty minutes. Then […] of lysis buffer (0.5% SDS in PSB) was added to each tube and each tube was vortexed for 5 seconds. Post incubation, all tubes were spun at 10000 G for 5 minutes. Supernatant was decanted and the pellet resuspended in Normal Saline. Tubes were vortexed. OD600 was measured using Eppendorf uvettes in a spectrophotometer. The delta between the control and the meropenem normal saline, or the control and the cefotaxime normal saline was used to determine susceptibility."}, "K. pneumo BAA-1705 (KPC)": {"system": "K. pneumo BAA-1705 (KPC)", "test": "Selective lysis test, OD600, meropenem and cefotaxime (Example 2)", "format": "cell-based, K. pneumoniae", "procedure": "as §3, §4"}, "[1]": {"system": "K. pneumo BAA-2146 (NDM1)", "test": "Selective lysis test, OD600, meropenem and cefotaxime (Example 2)", "format": "cell-based, K. pneumoniae", "procedure": "as §3, §4"}, "[2]": {"conditions": "OD600 vs control without meropenem"}, "[3]": {"conditions": "meropenem 10 μg/ml, 30 min, SDS lysis buffer + vortex"}}, "data": [{"smiles": "C[C@@H](O)[C@H]1C(=O)N2C(C(=O)O)=C(S[C@@H]3CN[C@H](C(=O)N(C)C)C3)[C@H](C)[C@H]12", "note": "[meropenem]", "values": [{"measurement": "R or S", "setting": "E. coli 23848", "value": "S (a percentage change of greater than about 85% indicates a strain is susceptible)"}, {"measurement": "% Change", "setting": "E. coli 23848; [2]", "value": 97, "unit": "%"}, {"measurement": "Mero OD600", "setting": "E. coli 23848; [3]", "value": 0.021}, {"measurement": "R or S", "setting": "E. coli 25922", "value": "S (a percentage change of greater than about 85% indicates a strain is susceptible)"}, {"measurement": "% Change", "setting": "E. coli 25922; [2]", "value": 97, "unit": "%"}, {"measurement": "Mero OD600", "setting": "E. coli 25922; [3]", "value": 0.064}, {"measurement": "R or S", "setting": "E. coli 35218", "value": "S (a percentage change of greater than about 85% indicates a strain is susceptible)"}, {"measurement": "% Change", "setting": "E. coli 35218; [2]", "value": 90, "unit": "%"}, {"measurement": "Mero OD600", "setting": "E. coli 35218; [3]", "value": 0.1}, {"measurement": "R or S", "setting": "E. coli 51422", "value": "S (a percentage change of greater than about 85% indicates a strain is susceptible)"}, {"measurement": "% Change", "setting": "E. coli 51422; [2]", "value": 98, "unit": "%"}, {"measurement": "Mero OD600", "setting": "E. coli 51422; [3]", "value": 0.031}, {"measurement": "R or S", "setting": "K. oxy KPC 46532", "value": "S (a percentage change of greater than about 85% indicates a strain is susceptible)"}, {"measurement": "% Change", "setting": "K. oxy KPC 46532; [2]", "value": 71, "unit": "%"}, {"measurement": "Mero OD600", "setting": "K. oxy KPC 46532; [3]", "value": 0.259}, {"measurement": "R or S", "setting": "K. pneumo KPC 12213", "value": "R"}, {"measurement": "% Change", "setting": "K. pneumo KPC 12213; [2]", "value": "−5", "unit": "%"}, {"measurement": "Mero OD600", "setting": "K. pneumo KPC 12213; [3]", "value": 1.454}, {"measurement": "R or S", "setting": "K. pneumo KPC 1705", "value": "R"}, {"measurement": "% Change", "setting": "K. pneumo KPC 1705; [2]", "value": "−32", "unit": "%"}, {"measurement": "Mero OD600", "setting": "K. pneumo KPC 1705; [3]", "value": 1.65}, {"measurement": "R or S", "setting": "K. pneumo KPC 24605", "value": "R"}, {"measurement": "% Change", "setting": "K. pneumo KPC 24605; [2]", "value": 6, "unit": "%"}, {"measurement": "Mero OD600", "setting": "K. pneumo KPC 24605; [3]", "value": 2.0363}, {"measurement": "R or S", "setting": "K. pneumo KPC 41217", "value": "R"}, {"measurement": "% Change", "setting": "K. pneumo KPC 41217; [2]", "value": 5, "unit": "%"}, {"measurement": "Mero OD600", "setting": "K. pneumo KPC 41217; [3]", "value": 1.764}, {"measurement": "R or S", "setting": "K. pneumo KPC 4121", "value": "R"}, {"measurement": "% Change", "setting": "K. pneumo KPC 4121; [2]", "value": "−3", "unit": "%"}, {"measurement": "Mero OD600", "setting": "K. pneumo KPC 4121; [3]", "value": 1.734}, {"measurement": "R or S", "setting": "K. pneumo KPC 65707", "value": "R"}, {"measurement": "% Change", "setting": "K. pneumo KPC 65707; [2]", "value": 12, "unit": "%"}, {"measurement": "Mero OD600", "setting": "K. pneumo KPC 65707; [3]", "value": 1.887}, {"measurement": "R or S", "setting": "K. pneumo KPC KPC12", "value": "R"}, {"measurement": "% Change", "setting": "K. pneumo KPC KPC12; [2]", "value": 2, "unit": "%"}, {"measurement": "Mero OD600", "setting": "K. pneumo KPC KPC12; [3]", "value": 1.844}, {"measurement": "R or S", "setting": "K. pneumo NDM 2146", "value": "R"}, {"measurement": "% Change", "setting": "K. pneumo NDM 2146; [2]", "value": 18, "unit": "%"}, {"measurement": "Mero OD600", "setting": "K. pneumo NDM 2146; [3]", "value": 1.576}, {"measurement": "% diff", "setting": "K. pneumo 13882; K. pneumo 13882, OD600 vs control", "value": 65.1, "unit": "%"}, {"measurement": "OD600", "setting": "K. pneumo 13882; K. pneumo 13882, antibiotic 10 μg/ml, 30 min, SDS lysis buffer + vortex, 1.5 h culture", "value": 0.127}, {"measurement": "assay score (sensitive or resistant)", "setting": "K. pneumo 13882; K. pneumoniae 13882", "value": "sensitive"}, {"measurement": "% diff", "setting": "K. pneumo BAA-1705 (KPC); K. pneumo BAA-1705 (KPC), OD600 vs control", "value": 16.6, "unit": "%"}, {"measurement": "OD600", "setting": "K. pneumo BAA-1705 (KPC); K. pneumo BAA-1705 (KPC), antibiotic 10 μg/ml, 30 min, SDS lysis buffer + vortex, 1.5 h culture", "value": 0.423}, {"measurement": "assay score (sensitive or resistant)", "setting": "K. pneumo BAA-1705 (KPC); K. pneumoniae BAA-1705 (KPC)", "value": "resistant"}, {"measurement": "% diff", "setting": "[1]; K. pneumo BAA-2146 (NDM1), OD600 vs control", "value": "−0.3", "unit": "%"}, {"measurement": "OD600", "setting": "[1]; K. pneumo BAA-2146 (NDM1), antibiotic 10 μg/ml, 30 min, SDS lysis buffer + vortex, 1.5 h culture", "value": 0.301}, {"measurement": "assay score (sensitive or resistant)", "setting": "[1]; K. pneumoniae BAA-2146 (NDM1)", "value": "resistant"}]}]}
